Experimental data taken from patent publication US8445409B2, “Use of 5-benzyloxymethyl-1,2-isoxazoline derivatives as a herbicide” (Moghu Research Center Ltd., priority 2007, dated 2013).
“Also recorded” adds a separate entry of the source.

Legend:
[1] = tested on: gramineous weeds such as barnyardgrass, green foxtail, large crabgrass and fall panicum; assay: Upland pot test, gramineous weeds as a group; format: in vivo
Excerpt: (§1) To a rectangular plastic pot having a surface area of 300 cm^2, mixed soils including blend bed soil (Boonong, Horticultural Bed Soil No. 3) and sandy loam soil were filled (mixing ratio, 1:1). Seeds of the eight different types of weeds including gramineous weed such as barnyardgrass, large crabgrass, green foxtail, fall panicum, and broadleaf weed such as common cocklebur, velvetleaf, Indian joint-vetch, and morningglory were sown. To the other pot containing the same soil mixture, seeds of the five different types of crops including corn, soybean, cotton, wheat and rice were sown. Pots were kept in a greenhouse of which temperature was maintained at 25˜30° C. (day) or 15˜25° C. (night), and regularly watered.
(§2) After fourteen days and when the crops and the weeds reached their three-leaf stage, the other set of a crop pot and a weed pot were prepared by the same method as described above. Then, “test substance” was sprayed thereto. In this case, spray treatment to the plants after they have grown for two weeks corresponded to post-emergence treatment while spray treatment to the seeds right after the sowing corresponded to pre-emergence treatment. Spray was carried out by using a track sprayer (R&D Sprayer, USA) equipped with a Teejet 8002 nozzle (Spraying Systems Co., USA). Spray volume was adjusted to 300 L/ha. The spray solution was prepared by dissolving the “test substance” in acetone and adding the same volume of 0.2% (v/v) Tween 20 aqueous solution. Dosage of the test substance was 500, 250, 125, 62.5 or 31.3 g/ha. Two weeks after the spray of the test substance, efficacy and phytotoxic effect to the crops and the weeds were visually measured based on a 0 to 10 scale (0: no efficacy, 10: completely killed).

Annual bluegrass = assay: Herbicidal activity at different growth stages, fresh weight suppression; format: in vivo; settings: for Suppression ratio relative to the biomass of the untreated group: Annual bluegrass 1 leaf / Suppression ratio relative to the biomass of the untreated group: Annual bluegrass 2 leaf / Suppression ratio relative to the biomass of the untreated group: Annual bluegrass 3 leaf / Suppression ratio relative to the biomass of the untreated group: Annual bluegrass 4 leaf / Suppression ratio relative to the biomass of the untreated group: Annual bluegrass PRE: fresh weight two weeks after treatment
Method: To a cup pot having a surface area of 100 cm^2 wherein mixed soils including blend bed soil (Boonong, Horticultural Bed Soil No. 3) and sandy loam soil were filled (mixing ratio, 1:1), seeds of large crabgrass and annual bluegrass were sown consecutively at an one week interval. The pots were moistened by sub-irrigation, and kept in a greenhouse maintained at 25˜30° C. (day) or 15˜25° C. (night). The said weeds were grown to various growth stages from pre-emergence to the four-leaf stage. […] Spray volume was adjusted to 2,000 L/ha. The method to spray of the test substance and prepare spray solutions were the same as described above. The reference herbicide was used after it was diluted with 0.2% (v/v) Tween 20 aqueous solution. The test was conducted in a randomized block design with three replicates. Two weeks after the treatment, plant parts remained above the pot soil surface were cut and the fresh weight was weighed. Results are given by a suppression ratio relative to the biomass that was obtained from the untreated group (see, Table 3).

Cocklebur = assay: Upland pot test, pre-/post-emergence spray, visual rating; format: in vivo, common cocklebur (XANST); settings: 2 weeks after spray, 0-10 scale (10=completely killed)
Excerpt: as §1, §2

Large crabgrass = assay: Herbicidal activity at different growth stages, fresh weight suppression; format: in vivo; settings: .12 kg/ha, fresh weight two weeks after treatment
[2] = tested on: broadleaf weeds such as common cocklebur, Indian joint-vetch, velvetleaf, morningglory; assay: Upland pot test, broadleaf weeds as a group; format: in vivo
Excerpt: as §1, §2

Rice = assay: Upland pot test, pre-/post-emergence spray, visual rating; format: in vivo, rice (ORYSA); settings: for Visual measurement: Crops, Rice: 2 weeks after spray, 0-10 scale (10=completely killed)
Excerpt: as §1, §2

[3] = post-emergence treatment at three-leaf stage, FIG. 2
[4] = post-emergence foliar spray at three leaf stage, 31.2 g/ha
[5] = post-emergence foliar spray at three leaf stage, 62.5 g/ha
[6] = post-emergence foliar spray at three leaf stage, 125 g/ha
[7] = post-emergence foliar spray at three leaf stage, 250 g/ha
[8] = post-emergence foliar spray at three leaf stage, 500 g/ha
[9] = pre-emergence soil treatment, 31.2 g/ha
[10] = pre-emergence soil treatment, 62.5 g/ha
[11] = pre-emergence soil treatment, 125 g/ha
[12] = pre-emergence soil treatment, 250 g/ha
[13] = pre-emergence soil treatment, 500 g/ha

Compound: Cc1ccsc1C1=NOC(C)(COCc2c(F)cccc2F)C1 (stereo not drawn) [test substance, 5-(2,6-difluorobenzyl)oxymethyl-5-methyl-3-(4-methylthiophen-5-yl)-1,2-isoxazoline]
- Control of gramineous weeds (in words) [1, 3]: well controlled
- Control of gramineous weeds (in words) ([1]; post-emergence treatment, 500 g/ha): most of the gramineous weeds were controlled
- Control of gramineous weeds (in words) ([1]; pre-emergence treatment, 125 g/ha or more, FIG. 1): remarkable effect of controlling all of the gramineous weeds; also recorded: effectively controlled
- Suppression ratio relative to the biomass of the untreated group: Annual bluegrass 1 leaf (Annual bluegrass; 1 kg/ha): 97%
- Suppression ratio relative to the biomass of the untreated group: Annual bluegrass 2 leaf (Annual bluegrass; 1 kg/ha): 93%
- Suppression ratio relative to the biomass of the untreated group: Annual bluegrass 3 leaf (Annual bluegrass; 1 kg/ha): 66%
- Suppression ratio relative to the biomass of the untreated group: Annual bluegrass 4 leaf (Annual bluegrass; 1 kg/ha): 55%
- Suppression ratio relative to the biomass of the untreated group: Annual bluegrass PRE (Annual bluegrass; 1 kg/ha): 100%
- Suppression ratio relative to the biomass of the untreated group: Annual bluegrass 1 leaf (Annual bluegrass; 2 kg/ha): 99%
- Suppression ratio relative to the biomass of the untreated group: Annual bluegrass 2 leaf (Annual bluegrass; 2 kg/ha): 95%
- Suppression ratio relative to the biomass of the untreated group: Annual bluegrass 3 leaf (Annual bluegrass; 2 kg/ha): 69%
- Suppression ratio relative to the biomass of the untreated group: Annual bluegrass 4 leaf (Annual bluegrass; 2 kg/ha): 60%
- Suppression ratio relative to the biomass of the untreated group: Annual bluegrass PRE (Annual bluegrass; 2 kg/ha): 100%
- Suppression ratio relative to the biomass of the untreated group: Annual bluegrass 1 leaf (Annual bluegrass; .12 kg/ha): 37%
- Suppression ratio relative to the biomass of the untreated group: Annual bluegrass 2 leaf (Annual bluegrass; .12 kg/ha): 35%
- Suppression ratio relative to the biomass of the untreated group: Annual bluegrass 3 leaf (Annual bluegrass; .12 kg/ha): 0%
- Suppression ratio relative to the biomass of the untreated group: Annual bluegrass 4 leaf (Annual bluegrass; .12 kg/ha): 0%
- Suppression ratio relative to the biomass of the untreated group: Annual bluegrass PRE (Annual bluegrass; .12 kg/ha): 95%
- Suppression ratio relative to the biomass of the untreated group: Annual bluegrass 1 leaf (Annual bluegrass; .25 kg/ha): 95%
- Suppression ratio relative to the biomass of the untreated group: Annual bluegrass 2 leaf (Annual bluegrass; .25 kg/ha): 82%
- Suppression ratio relative to the biomass of the untreated group: Annual bluegrass 3 leaf (Annual bluegrass; .25 kg/ha): 18%
- Suppression ratio relative to the biomass of the untreated group: Annual bluegrass 4 leaf (Annual bluegrass; .25 kg/ha): 2%
- Suppression ratio relative to the biomass of the untreated group: Annual bluegrass PRE (Annual bluegrass; .25 kg/ha): 100%
- Suppression ratio relative to the biomass of the untreated group: Annual bluegrass 1 leaf (Annual bluegrass; .5 kg/ha): 96%
- Suppression ratio relative to the biomass of the untreated group: Annual bluegrass 2 leaf (Annual bluegrass; .5 kg/ha): 90%
- Suppression ratio relative to the biomass of the untreated group: Annual bluegrass 3 leaf (Annual bluegrass; .5 kg/ha): 61%
- Suppression ratio relative to the biomass of the untreated group: Annual bluegrass 4 leaf (Annual bluegrass; .5 kg/ha): 37%
- Suppression ratio relative to the biomass of the untreated group: Annual bluegrass PRE (Annual bluegrass; .5 kg/ha): 100%
- Suppression of annual bluegrass (Annual bluegrass; PRE to 2-leaf stage, 0.5 kg/ha or above): ≥ 90%
- Control of annual bluegrass (in words) (Annual bluegrass; over three-leaf stage): suppressed but were not completely controlled
- Visual measurement: Broadleaf weed, Cocklebur (Cocklebur; [4]): 0
- Visual measurement: Broadleaf weed, Cocklebur (Cocklebur; [5]): 0
- Visual measurement: Broadleaf weed, Cocklebur (Cocklebur; [6]): 1
- Visual measurement: Broadleaf weed, Cocklebur (Cocklebur; [7]): 3
- Visual measurement: Broadleaf weed, Cocklebur (Cocklebur; [8]): 7
- Visual measurement: Broadleaf weed, Cocklebur (Cocklebur; [9]): 0
- Visual measurement: Broadleaf weed, Cocklebur (Cocklebur; [10]): 0
- Visual measurement: Broadleaf weed, Cocklebur (Cocklebur; [11]): 0
- Visual measurement: Broadleaf weed, Cocklebur (Cocklebur; [12]): 0
- Visual measurement: Broadleaf weed, Cocklebur (Cocklebur; [13]): 0
- Suppression ratio relative to the biomass of the untreated group: Large crabgrass 1 leaf (Large crabgrass): 95%
- Suppression ratio relative to the biomass of the untreated group: Large crabgrass 3 leaf (Large crabgrass): 23%
- Suppression ratio relative to the biomass of the untreated group: Large crabgrass PRE (Large crabgrass): 84%
- Control of broadleaf weeds (in words) ([2]; post-emergence application, 500 g/ha): well controlled
- Control of broad-leaf weeds (in words) [2, 3]: somewhat controlled showing a mild suppression effect
- Effect on broadleaf weeds (in words) ([2]; pre-emergence treatment, FIG. 1): almost no effect; also recorded: not affected
- Visual measurement: Crops, Rice (Rice; [4]): 0
- Visual measurement: Crops, Rice (Rice; [5]): 0
- Visual measurement: Crops, Rice (Rice; [6]): 0
- Visual measurement: Crops, Rice (Rice; [7]): 0
- Visual measurement: Crops, Rice (Rice; [8]): 0
- Safety to rice (in words) (Rice; post-emergence treatment): safe
- Visual measurement: Crops, Rice (Rice; [9]): 0
- Visual measurement: Crops, Rice (Rice; [10]): 0
- Visual measurement: Crops, Rice (Rice; [11]): 0
- Visual measurement: Crops, Rice (Rice; [12]): 0
- Visual measurement: Crops, Rice (Rice; [13]): 0
